Values joined by “and” are separate entries in the source; they are usually repeats but may differ in a detail not shown here. Equal entries are not always repeated. “Also recorded” adds a separate entry of the source. Where two headings read alike, the source gives them in different places.
Legend:
[1] = test system: human metabolic pathways (KEGG); experiment: Untargeted plasma pharmacometabolomics dataset A (pre-dose versus T2.5, 3, 3.5 h, n = 6), mummichog functional pathway analysis; details: time course 0–12 h
[2] = cited from earlier work
[3] = Clinical safety, adverse event and glucose monitoring after single-dose metformin 1000 mg in healthy subjects; assay type: in vivo, human
Experimental: Three cohorts were planned to ensure sufficient clinical ward staff and space to monitor every subject on the dosing day. Subjects were housed in a controlled environment, and standardized meals were provided to each cohort. The blood samples were collected using an ethylenediaminetetraacetic acid (EDTA) tube and centrifuged at 10,000 rpm for 10 min at 4. The plasma samples together with the urine samples were kept in a -80 °C freezer in cryovials for further analysis. The subjects were monitored for adverse events until seven days post-dose. Pre-dose and peak-concentration plasma samples were used for untargeted pharmacometabolomic analysis to determine the treatment metabotypes.

[4] = test system: human metabolic pathways (KEGG); experiment: Untargeted urine pharmacometabolomics (pre-dose U0 versus U1 0–4 h, U2 4–8 h, U3 8–12 h, n = 6), mummichog functional pathway analysis; assay type: in vivo; details: urine collections 0–12 h
clinical = details: human, in vivo

CN(C)C(=N)N=C(N)N [metformin]
Tmax (male, human, in vivo): 3 h | T_max (male, human, in vivo, po): 2.5 (2.5–3.0) h | CL (male, human, in vivo, po, 1000 mg): 1884 (32.3) mL/min | Tmax (subject S6): 2 h | Tmax (subject S8): 3.5 h and 2 h | Cmax (subject S10): 1391.3 ng/mL | Tmax (subject S15): 4 h | Tmax (subject S16): 2 h | Cmax (subject S17): 1381.7 ng/mL | Tmax (subject S17): 4 h | metformin intensity in plasma (untargeted LCMS, positive mode) [1]: a reducing trend happened at 8 h and a return to zero at 12 h | peak plasma concentration ([2]; diabetic patients, 1000 mg twice daily chronically): approximately 40 µM | plasma concentration reached within three hours ([2]; oral 1000 mg, non-diabetic subjects): 25 µM | Glucose ([3]; 4 hours post-dose (before lunch), mean of 17 subjects): 4.7 mmol/L | Glucose ([3]; 4 hours post-dose, subject S01): 5.0 mmol/L | Glucose ([3]; 4 hours post-dose, subject S02): 4.7 mmol/L | Glucose ([3]; 4 hours post-dose, subject S04): 4.8 mmol/L | Glucose ([3]; 4 hours post-dose, subject S05): 5.2 mmol/L | Glucose ([3]; 4 hours post-dose, subject S06): 4.6 mmol/L | Glucose ([3]; 4 hours post-dose, subject S07): 4.7 mmol/L | Glucose ([3]; 4 hours post-dose, subject S08): 4.3 mmol/L | Glucose ([3]; 4 hours post-dose, subject S09): 4.4 mmol/L | Glucose ([3]; 4 hours post-dose, subject S10): 4.9 mmol/L | Glucose ([3]; 4 hours post-dose, subject S11): 4.7 mmol/L | Glucose ([3]; 4 hours post-dose, subject S12): 5.2 mmol/L | Glucose ([3]; 4 hours post-dose, subject S13): 4.4 mmol/L | Glucose ([3]; 4 hours post-dose, subject S14): 4.7 mmol/L | Glucose ([3]; 4 hours post-dose, subject S15): 4.4 mmol/L | Glucose ([3]; 4 hours post-dose, subject S16): 4.9 mmol/L | Glucose ([3]; 4 hours post-dose, subject S17): 4.6 mmol/L | Glucose ([3]; 4 hours post-dose, subject S18): 3.9 mmol/L | clinical laboratory characteristics ([3]; screening versus follow-up, clinician judgement): within normal range and considered no significant changes | adverse drug reaction ([3]; single dose 1000 mg, 17 healthy subjects, monitored until seven days post-dose): One subject experienced abdominal pain after the dosing; also recorded: stomach cramps; also recorded: one side effect was observed | metformin in urine (untargeted LCMS, positive mode) [4]: achieved high concentration in the first 8 h and a slight reduction during 8–12 h | Cmax (clinical; 1000 mg, subject S4): 1430 ng/mL | Cmax (clinical; 1000 mg, subject S9): 1170 ng/mL | Tmax (clinical; male): 2.65 h | AUC(0-t) (clinical; male, 1000 mg): 10900 ng·h/mL | k el (clinical; male, Ke): 3.97e-05 s⁻¹ | AUC (clinical; male, po, 1000 mg): 9510 ng·h/mL | AUC(0-t) (clinical; male, po, 1000 mg, AUC_0–24): 8960 ng·h/mL

Source: article PMC9231303, “Pharmacokinetic–Pharmacometabolomic Approach in Early-Phase Clinical Trials: A Way Forward for Targeted Therapy in Type 2 Diabetes” (Pharmaceutics, 2022)
